For experiment [1], the target named is T1, IDO1 (Homo sapiens (Human), UniProt P14902). The experiment is described as follows: IDO1 Cellular Assay in Frozen HEK293 Cells Transiently Transfected with Human IDO1. The settings on record: read-out: IDO1 HEK293 Cell Assay, IC50. The format is cell-based. As to the method:
IDO1 Cellular Assay in Frozen HEK293 Cells Transiently Transfected with Human IDO1
HEK293 cells were cultured in complete HEK293 culture medium (90% DMEM, 10% heat-inactivated fetal bovine serum). When reaching sub-confluent, the cells were trypsinized and neutralized with complete medium. […] Flag-IDO1 plasmid was added to the cell suspension at a concentration of 100 μg/mL. The cell-plasmid solutions were transferred to the OC-400 processing assembly (Maxcyte), 400 l/unit and the units were placed in a Maxcyte instrument to carry out flow electroporation for transfection. The cells were then transferred to a sterile 24-well cell culture plate to recover for 20-30 min at 37° C. in an incubator with 5% CO2.
Frozen HEK293/IDO1 and HEK293 WT cells were thawed and transferred into HEK293 assay medium (99% complete HEK293 culture medium, 1% Pen/Strep) with 20 mL medium/vial of cells. The cells were spun down at 250 g in a table top centrifuge for 5 min and suspended in same volume of HEK293 assay medium. […] Sterile L-tryptophan were added to the cells with final concentration of 300 μM.
HEK293/IDO1 and HEK293 WT cells were dispensed to the respective wells of 384-well assay plates containing the compounds. The plates were incubated for about 28-30 h at a 37° C., 5% CO2 incubator. […] The plates were centrifuged for 1 min at 200×g. The resulting fluorescence was measured in a Spectramax plate reader (Molecular Devices) with a 400 nm excitation filter and a 510 nm emission filter.

Experiment [2] concerns the target T1, IDO1. Put plainly: IDO1 Enzyme Assay. Particulars: HIS-tagged recombinant IDO1, 40 nM.
The target in experiment [3] is T1, IDO1. The experiment is described as follows: IDO1 Cellular Assay in Hela Cells Stimulated with IFNγ. It is filed as cell-based. Particulars: Hela cells stimulated with IFNγ 100 ng/mL; read-out: IDO1 HELA Cell Assay, IC50. As to the method: IDO1 Cellular Assay in Hela Cells Stimulated with IFNγ
Hela cells were cultured in complete Hela culture medium (90% EMEM, 10% heat-inactivated fetal bovine serum) and expanded to about 1×10^9 cells. The cells were then collected and frozen down at 10×10^6 cells/vial in 1 mL frozen medium (90% complete Hela culture medium, 10% DMSO)
Frozen Hela cells were thawed and transferred into Hela assay medium (99% complete Hela culture medium, 1% Pen/Strep) with 20 mL medium/vial of cells. The cells were spun down at 250 g in a table top centrifuge for 5 min and suspended in same volume of Hela assay medium. The cells were then counted and adjusted to a density of 2×10^5 cells/ml in Hela assay medium. Sterile L-tryptophan were added to the cells with final concentration of 300 uM L-tryptophan. A small aliquot (2 mL/plate) of Hela cells were set aside and were not treated with IFNγ, to serve as the Max-E control. The rest of Hela cells were added with sterile IFNγ (Cat #285-IF, R & D systems) with a final concentration of 100 ng/mL.
Hela cells with and without IFNγ were dispensed to the respective wells of 384-well assay plates containing the compounds. The plates were incubated for about 48 hours at a 37° C., 5% CO2 incubator. […] The plates were centrifuged for 1 min at 200×g. The resulting fluorescence was measured in a Spectramax plate reader (Molecular Devices) with a 400 nm excitation filter and a 510 nm emission filter.

[4] abbreviates: HEK293 cells transiently transfected with human IDO1.
The mark [5] stands for this setting: read-out: IDO1 Enzyme Assay, IC50.

By IC50 is commonly meant the midpoint of a concentration-inhibition curve.

T1 sequence (P14902 whole entry): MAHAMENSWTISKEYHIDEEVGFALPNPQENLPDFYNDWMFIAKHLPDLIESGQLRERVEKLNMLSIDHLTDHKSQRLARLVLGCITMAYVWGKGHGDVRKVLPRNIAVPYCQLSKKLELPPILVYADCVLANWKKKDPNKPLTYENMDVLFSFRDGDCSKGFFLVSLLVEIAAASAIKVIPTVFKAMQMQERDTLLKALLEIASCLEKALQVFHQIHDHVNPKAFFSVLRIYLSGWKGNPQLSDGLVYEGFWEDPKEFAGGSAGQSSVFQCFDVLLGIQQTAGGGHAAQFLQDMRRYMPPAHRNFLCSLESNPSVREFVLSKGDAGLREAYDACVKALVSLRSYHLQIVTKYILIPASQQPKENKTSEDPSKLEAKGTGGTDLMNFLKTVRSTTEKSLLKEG

Consider `O=c1c(NCCSc2nsnc2/C(=N/O)Nc2ccc(F)c(Br)c2)c(NC2CC2)c1=O` [Example 211, N-(3-bromo-4-fluorophenyl)-4-[(2-{[2-(cyclopropylamino)-3,4-dioxocyclobut-1-en-1-yl]amino}ethyl)sulfanyl]-N′-hydroxy-1,2,5-thiadiazole-3-carboximidamide], for which the IC50 was 1320 nM on IDO1 [1] (setting [4]) and 297 nM at IDO1 [2] (setting [5]).

Take `CC(=O)NCCSc1nonc1/C(=N/O)Nc1ccc(F)cc1` [Example 62, N-[2-({4-[N-(4-fluorophenyl)-N′-hydroxycarbamimidoyl]-1,2,5-oxadiazol-3-yl}sulfanyl)ethyl]acetamide]: the half-inhibitory concentration (IC50) stood at 1790 nM at IDO1 [1] (setting [4]) and 1030 nM at IDO1 [2] (setting [5]). Turning to `CN(C)P(=O)(CCSc1nonc1/C(=N/O)Nc1ccc(F)c(Br)c1)N(C)C` [Example 139, 4-({2-[bis(dimethylamino)phosphoryl]ethyl}sulfanyl)-N-(3-bromo-4-fluorophenyl)-N′-hydroxy-1,2,5-oxadiazole-3-carboximidamide], the results for the IC50 on IDO1 [1] and on IDO1 [2] (setting [5]) were 551 nM and 117 nM, respectively.

As for `CC(=O)N[C@H](C)CSc1nonc1/C(=N/O)Nc1ccc(F)c(C#N)c1` [Example 179, N-[(1R)-2-({4-[N-(3-cyano-4-fluorophenyl)-N′-hydroxycarbamimidoyl]-1,2,5-oxadiazol-3-yl}sulfanyl)-1-methylethyl]acetamide], the IC50 amounted to 686 nM on IDO1 [1] (setting [4]) and 218 nM at IDO1 [2] (setting [5]).

As to `CC(Sc1nonc1/C(=N/O)Nc1ccc(F)c(Br)c1)C(=O)O` (centres unmarked) [Example 16, (Z)-2-((4-(N-(3-bromo-4-fluorophenyl)-N′-hydroxycarbamimidoyl)-1,2,5-oxadiazol-3-yl)thio)propanoic acid], the IC50 at IDO1 [1] (setting [4]) is > 10000 nM; on IDO1 [2] (setting [5]) it was 149 nM. The matching figures for `O/N=C(\Nc1ccc(F)c(Br)c1)c1nonc1O` [Example 4, (Z)—N-(3-Bromo-4-fluorophenyl)-N′,4-dihydroxy-1,2,5-oxadiazole-3-carboximidamide]: 3700 nM and > 10000 nM. The matching figures for `COC(=O)CSc1nonc1/C(=N/O)Nc1ccc(F)c(Br)c1` [Example 22, Methyl (Z)-2-((4-(N-(3-bromo-4-fluorophenyl)-N′-hydroxycarbamimidoyl)-1,2,5-oxadiazol-3-yl)thio)acetate]: 1220 nM and 35.7 nM. On to `CCOC(=O)CNP(=O)(CCCSc1nonc1/C(=N/O)Nc1ccc(F)c(Br)c1)NCC(=O)OCC` [Example 108, ethyl 4-[3-({4-[N-(3-bromo-4-fluorophenyl)-N′-hydroxycarbamimidoyl]-1,2,5-oxadiazol-3-yl}sulfanyl)propyl]-7-oxo-8-oxa-3,5-diaza-4-phosphadecan-1-oate 4-oxide], for which the 50% inhibitory concentration (IC50) at IDO1 [1] (setting [4]) was 838 nM; at IDO1 [2] (setting [5]), 131 nM. Take `O=P(O)(CCCSc1nonc1/C(=N/O)Nc1ccc(F)c(Br)c1)Oc1ccccc1` [Example 118, phenyl hydrogen [3-({4-[N-(3-bromo-4-fluorophenyl)-N′-hydroxycarbamimidoyl]-1,2,5-oxadiazol-3-yl}sulfanyl)propyl]phosphonate]: the IC50 is 8150 nM on IDO1 [1] and 34.1 nM on IDO1 [2] (setting [5]). As to `O=C(O)CCSc1nonc1/C(=N/O)Nc1ccc(F)c(Br)c1` [Example 14, (Z)-3-((4-(N-(3-bromo-4-fluorophenyl)-N′-hydroxycarbamimidoyl)-1,2,5-oxadiazol-3-yl)thio)propanoic acid], the values for the 50% inhibitory concentration (IC50) at IDO1 [1] (setting [4]) and on IDO1 [2] (setting [5]) were > 10000 nM and 48.2 nM, respectively. Consider `O=P(CCSc1nonc1/C(=N/O)Nc1ccc(F)c(Br)c1)(NCc1ccccc1)NCc1ccccc1` [Example 116, 4-({2-[bis(benzylamino)phosphoryl]ethyl}sulfanyl)-N-(3-bromo-4-fluorophenyl)-N′-hydroxy-1,2,5-oxadiazole-3-carboximidamide], for which the results for the IC50 at IDO1 [1] (setting [4]) and at IDO1 [2] (setting [5]) were 706 nM and 154 nM, respectively. On to `O=S1(=O)NC[C@H](CSc2nonc2/C(=N/O)Nc2ccc(F)c(Cl)c2)N1` [Example 32, (R)—N-(3-chloro-4-fluorophenyl)-4-(((1,1-dioxido-1,2,5-thiadiazolidin-3-yl)methyl)thio)-N′-hydroxy-1,2,5-oxadiazole-3-carboximidamide], for which the half-maximal inhibitory concentration (IC50) on IDO1 [3] was 13.1 nM; on IDO1 [2] (setting [5]) it was 32 nM. Turning to `CC(C)(O)[C@H](O)CSc1nonc1C(=NO)Nc1ccc(F)c(C#N)c1` [Example 39, (S)—N-(3-cyano-4-fluorophenyl)-4-((2,3-dihydroxy-3-methylbutyl)thio)-N′-hydroxy-1,2,5-oxadiazole-3-carboximidamide], the figures for the half-inhibitory concentration (IC50) at IDO1 [3] and on IDO1 [2] (setting [5]) were 87.6 nM and 118 nM, respectively.

For `CC(C)(C)OC(=O)NCCSc1nonc1/C(=N/O)Nc1ccc(F)c(Br)c1` [Example 1, Tert-butyl (Z)-(2-((4-(N-(3-bromo-4-fluorophenyl)-N′-hydroxycarbamimidoyl)-1,2,5-oxadiazol-3-yl)thio)ethyl)carbamate], at IDO1 [1] (setting [4]), the IC50 was found to be 740 nM. As for `C[C@H](CO)NC(=O)CSc1nonc1/C(=N/O)Nc1ccc(F)c(Br)c1` [Example 197, (R)-2-((4-(N-(3-bromo-4-fluorophenyl)-N′-hydroxycarbamimidoyl)-1,2,5-oxadiazol-3-yl)thio)-N-(1-hydroxypropan-2-yl)acetamide], the IC50 stood at 15.3 nM on IDO1 [3] and 44.9 nM on IDO1 [2] (setting [5]). With `C[C@@H](CO)NC(=O)CSc1nonc1/C(=N/O)Nc1ccc(F)c(Br)c1` [Example 205, (S)-2-((4-(N-(3-bromo-4-fluorophenyl)-N′-hydroxycarbamimidoyl)-1,2,5-oxadiazol-3-yl)thio)-N-(1-hydroxypropan-2-yl)acetamide], the IC50 at IDO1 [3] is 11.7 nM; at IDO1 [2] (setting [5]) it was 12.4 nM. For `CC(C)(O)[C@@H](O)CSc1nonc1C(=NO)Nc1ccc(F)c(C#N)c1` [Example 38, (R)—N-(3-cyano-4-fluorophenyl)-4-((2,3-dihydroxy-3-methylbutyl)thio)-N′-hydroxy-1,2,5-oxadiazole-3-carboximidamide], the figures for the half-maximal inhibitory concentration (IC50) at IDO1 [3] and on IDO1 [2] (setting [5]) were 118 nM and 144 nM, respectively. Turning to `C[C@H](O)CNC(=O)CSc1nonc1/C(=N/O)Nc1ccc(F)c(Br)c1` [Example 203, (S)-2-((4-(N-(3-bromo-4-fluorophenyl)-N′-hydroxycarbamimidoyl)-1,2,5-oxadiazol-3-yl)thio)-N-(2-hydroxypropyl)acetamide], the concentration for half-maximal inhibition (IC50) at IDO1 [3] came to 11.6 nM; at IDO1 [2] (setting [5]), 14.5 nM. The matching figures for `O=C(CSc1nonc1/C(=N/O)Nc1ccc(F)c(Br)c1)N1CC[C@H](O)[C@@H](O)C1` [Example 196, N-(3-bromo-4-fluorophenyl)-4-((2-((3S,4S)-3,4-dihydroxypiperidin-1-yl)-2-oxoethyl)thio)-N′-hydroxy-1,2,5-oxadiazole-3-carboximidamide]: 132 nM and 62.3 nM. With `O=C(CSc1nonc1/C(=N/O)Nc1ccc(F)c(Br)c1)NCC(O)CN1CCOCC1` (single isomer, unassigned) [Example 206, 2-((4-(N-(3-bromo-4-fluorophenyl)-N′-hydroxycarbamimidoyl)-1,2,5-oxadiazol-3-yl)thio)-N-(2-hydroxy-3-morpholinopropyl)acetamide], the IC50 on IDO1 [3] is 111 nM; at IDO1 [2] (IDO1 Enzyme Assay, IC50, nM), 39.3 nM. Regarding `CC(C)(NC(=O)CSc1nonc1/C(=N/O)Nc1ccc(F)c(Br)c1)C(O)CO` (centres unmarked) [Example 208, 2-((4-(N-(3-bromo-4-fluorophenyl)-N′-hydroxycarbamimidoyl)-1,2,5-oxadiazol-3-yl)thio)-N-(3,4-dihydroxy-2-methylbutan-2-yl)acetamide], the results for the concentration for half-maximal inhibition (IC50) at IDO1 [3] and on IDO1 [2] (setting [5]) were 37.5 nM and 26.6 nM, respectively.

Source of the values: patent publication US10538497B2, “Compounds as indoleamine 2,3-dioxygenase inhibitors” (Merck Sharp & Dohme Corp., priority 2015, dated 2020).
